Measurements as given in patent US5569670A, “Combination medications containing alpha-lipoic acid and related” (Asta Medica Aktiengesellschaft, priority 1992, dated 1996).
Read-outs that look alike come from different tables or passages of the source.

Key:
in vivo [1] = conditions: mouse, in vivo
[2] = cited from earlier work
in vivo [3] = conditions: rat, in vivo
mouse = experiment: in vivo
rat = experiment: in vivo
[4] = cited from earlier work; remark: listed apart in the source
[5] = po, oral administration, LITCHFIELD and WILCOXON method, read-out: acute toxicity LD50

## O=C(O)CCCC[C@@H]1CCSS1 [R-alpha-lipoic acid]
In vivo [1]; [5]
  LD50: > 1000 mg/kg
[2]; in vivo
  predominant effect of the enantiomer (anti-inflammatory): predominantly anti-inflammatory effect
[2]; x times stronger than the racemate
  anti-inflammatory effect relative to the racemate: 10 times

## O=C(O)CCCCC1CCSS1 (racemic) [alpha-lipoic acid (racemate), 1,2-dithia-cyclopentane-3-valeric acid]
In vivo [1]; po, female, read-out: LD50
  LD50: 460 mg/kg
In vivo [1]; po, male, read-out: LD50
  LD50: 502 mg/kg
In vivo [3]; po, female
  LD50: 1210 mg/kg
In vivo [3]; po, male
  LD50: 1190 mg/kg

## O=C1O[C@H]([C@@H](O)CO)C(O)=C1O [Vitamin C, ascorbic acid]
In vivo [1]; iv, read-out: LD50
  LD50: 1060 mg/kg
In vivo [1]; po, read-out: LD50
  LD50: 8020 mg/kg
In vivo [3]; iv
  LD50: 1000 mg/kg
In vivo [3]; po
  LD50: > 5000 mg/kg

## Vitamin B6
mouse; i.v.
  LD50: 1020 mg/kg
mouse; p.o.
  LD50: 8400 mg/kg
rat; i.v.
  LD50: 1450 mg/kg
rat; p.o.
  LD50: 5500 to 15900 mg/kg

## O=C(O)CCCC[C@H]1CCSS1 [S-alpha-lipoic acid]
In vivo [1]; [5]
  LD50: > 1000 mg/kg
[4]; in vivo
  predominant effect of the enantiomer (antinociceptive): predominantly antinociceptive effect
[4]; up to x times stronger than the racemate
  antinociceptive (analgesic) effect relative to the racemate: up to 6 times
